From US7138361B2, “Herbicidal heterocycles” (E. I. du Pont de Nemours and Company, priority 2000, dated 2006)

Legend:
Type in all cases: in vivo
[1] = tested on: johnsongrass (Sorghum halepense); assay: Test C postemergence
In short: (§1)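 Preemergence: seeds sown then treated. Postemergence: plants 2–18 cm, 1- to 4-leaf. Both with surfactant-containing solvent formulation; visual injury scored 0–100 after 12–14 d.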

[2] = tested on: corn (Zea mays); assay: Test C postemergence
In short: as §1

[3] = tested on: velvetleaf (Abutilon theophrasti); assay: Test C postemergence
In short: as §1

[4] = tested on: crabgrass (Digitaria sanguinalis); assay: Test C postemergence
In short: as §1

[5] = tested on: giant foxtail (Setaria faberii); assay: Test C postemergence; conditions: scale 0 to 100 (0 no effect, 100 complete control)
In short: as §1

[6] = tested on: kochia (Kochia scoparia); assay: Test C postemergence
In short: as §1

[7] = tested on: yellow nutsedge (Cyperus esculentus); assay: Test C postemergence
In short: as §1

[8] = tested on: bermudagrass (Cynodon dactylon); assay: Test C postemergence
In short: as §1

[9] = tested on: Surinam grass (Brachiaria decumbens); assay: Test C postemergence
In short: as §1

[10] = tested on: soybean (Glycine max); assay: Test C postemergence
In short: as §1

[11] = tested on: woolly cupgrass (Eriochloa villosa); assay: Test C postemergence
In short: as §1

[12] = tested on: cocklebur (Xanthium strumarium); assay: Test C postemergence
In short: as §1

[13] = tested on: pigweed (Amaranthus retroflexus); assay: Test C postemergence
In short: as §1

[14] = tested on: wild oat (Avena fatua); assay: Test B postemergence
In short: (§2)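 Post-treatment, species sat 13–15 days under greenhouse conditions before visual scoring against controls, 0 (no effect) through 100 (complete control). Application preemergence to sown seeds or postemergence at 1- to 4-leaf stage, using a non-phytotoxic solvent/surfactant formulation.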

[15] = tested on: barnyardgrass (Echinochloa crus-galli); assay: Test B postemergence
In short: as §2

[16] = tested on: corn (Zea mays); assay: Test B postemergence
In short: as §2

[17] = tested on: wheat (Triticum aestivum); assay: Test B postemergence
In short: as §2

[18] = tested on: velvetleaf (Abutilon theophrasti); assay: Test B postemergence
In short: as §2

[19] = tested on: giant foxtail (Setaria faberii); assay: Test B postemergence
In short: as §2

[20] = tested on: Surinam grass (Brachiaria decumbens); assay: Test B postemergence
In short: as §2

[21] = tested on: morning glory (Ipomoea hederacea); assay: Test B postemergence
In short: as §2

[22] = tested on: lambsquarters (Chenopodium album); assay: Test B postemergence
In short: as §2

[23] = tested on: pigweed (Amaranthus retroflexus); assay: Test B postemergence
In short: as §2

[24] = Rate 250 g/ha, scale 0 to 100 (0 no effect, 100 complete control)
[25] = Rate 500 g/ha, scale 0 to 100 (0 no effect, 100 complete control)
[26] = Rate 125 g/ha, scale 0 to 100, 0 no effect, 100 complete control
[27] = Rate 500 g/ha, scale 0 (no effect) to 100 (complete control), 13 to 15 days

COc1cc(N2CCC(n3ccc(C(C)C)n3)C2=O)ccc1Br (stereo not drawn) [Compound 140]
Plant response rating, Johnsongrass ([1]; Rate 62 g/ha, scale 0 to 100): 30 | Plant response rating, Johnsongrass [1, 24]: 50 | Plant response rating, Johnsongrass [1, 25]: 50 | Plant response rating, Johnsongrass ([1]; rate not given, scale 0 to 100): 30 | Plant response rating, Corn ([2]; Rate 62 g/ha, scale 0 to 100): 0 | Plant response rating, Corn [2, 24]: 0 | Plant response rating, Corn [2, 25]: 0 | Plant response rating, Corn ([2]; scale 0 to 100): 0 | Plant response rating, Velvetleaf ([3]; Rate 62 g/ha, scale 0 to 100): 20 | Plant response rating, Velvetleaf [3, 24]: 70 | Plant response rating, Velvetleaf [3, 25]: 70 | Plant response rating, Velvetleaf ([3]; scale 0 to 100): 20 | Plant response rating, Crabgrass ([4]; Rate 62 g/ha, scale 0 to 100): 40 | Plant response rating, Crabgrass [4, 24]: 70 | Plant response rating, Crabgrass [4, 25]: 70 | Plant response rating, Foxtail, Giant ([5]; Rate 250 g/ha): 90 | Plant response rating, Foxtail, Giant ([5]; Rate 500 g/ha): 90 | Plant response rating, Kochia ([6]; Rate 62 g/ha, scale 0 to 100): 40 | Plant response rating, Kochia [6, 24]: 90 | Plant response rating, Kochia [6, 25]: 90 | Plant response rating, Nutsedge ([7]; Rate 62 g/ha, scale 0 to 100): 0 | Plant response rating, Nutsedge [7, 24]: 20 | Plant response rating, Bermudagrass ([8]; Rate 62 g/ha, scale 0 to 100): 30 | Plant response rating, Bermudagrass [8, 26]: 40 | Plant response rating, Bermudagrass [8, 24]: 70 | Plant response rating, Bermudagrass [8, 25]: 90 | Plant response rating, Surinam grass ([9]; Rate 62 g/ha, scale 0 to 100): 30 | Plant response rating, Surinam grass [9, 26]: 30 | Plant response rating, Surinam grass [9, 24]: 90 | Plant response rating, Soybean ([10]; Rate 62 g/ha, scale 0 to 100): 70 | Plant response rating, Soybean [10, 24]: 90 | Plant response rating, Soybean [10, 25]: 90 | Plant response rating, Cupgrass, Woolly ([11]; Rate 62 g/ha, scale 0 to 100): 40 | Plant response rating, Cupgrass, Woolly [11, 24]: 70 | Plant response rating, Cupgrass, Woolly [11, 25]: 70 | Plant response rating, Cocklebur ([12]; Rate 62 g/ha, scale 0 to 100): 40 | Plant response rating, Cocklebur [12, 24]: 80 | Plant response rating, Cocklebur [12, 25]: 100 | Plant response rating, Pigweed ([13]; Rate 62 g/ha, scale 0 to 100): 30 | Plant response rating, Pigweed [13, 24]: 80 | Plant response rating, Pigweed [13, 25]: 80 | Plant response rating, Wild Oat [14, 26]: 0 | Plant response rating, Wild Oat [14, 27]: 0 | Plant response rating, Barnyardgrass [15, 26]: 0 | Plant response rating, Barnyardgrass [15, 27]: 80 | Plant response rating, Corn [16, 26]: 0 | Plant response rating, Corn [16, 27]: 0 | Plant response rating, Wheat [17, 26]: 0 | Plant response rating, Wheat [17, 27]: 0 | Plant response rating, Velvetleaf [18, 26]: 0 | Plant response rating, Velvetleaf [18, 27]: 60 | Plant response rating, Foxtail, Giant [19, 26]: 0 | Plant response rating, Foxtail, Giant [19, 27]: 70 | Plant response rating, Surinam grass [20, 26]: 0 | Plant response rating, Surinam grass [20, 27]: 0 | Plant response rating, Morningglory [21, 26]: 0 | Plant response rating, Morningglory [21, 27]: 100 | Plant response rating, Lambsquarters [22, 26]: 70 | Plant response rating, Lambsquarters [22, 27]: 100 | Plant response rating, Pigweed [23, 26]: 60 | Plant response rating, Pigweed [23, 27]: 90

COc1cc(N2CCC(n3ccc(C(C)(C)C)n3)C2=O)ccc1Br (stereo not drawn) [Compound 141]
Plant response rating, Johnsongrass ([1]; Rate 62 g/ha, scale 0 to 100): 20 | Plant response rating, Johnsongrass [1, 24]: 30 | Plant response rating, Johnsongrass [1, 25]: 40 | Plant response rating, Johnsongrass ([1]; rate not given, scale 0 to 100): 30 | Plant response rating, Corn ([2]; Rate 62 g/ha, scale 0 to 100): 0 | Plant response rating, Corn [2, 24]: 0 | Plant response rating, Corn [2, 25]: 0 | Plant response rating, Corn ([2]; scale 0 to 100): 0 | Plant response rating, Velvetleaf ([3]; Rate 62 g/ha, scale 0 to 100): 50 | Plant response rating, Velvetleaf [3, 24]: 50 | Plant response rating, Velvetleaf [3, 25]: 80 | Plant response rating, Velvetleaf ([3]; scale 0 to 100): 50 | Plant response rating, Crabgrass ([4]; Rate 62 g/ha, scale 0 to 100): 60 | Plant response rating, Crabgrass [4, 24]: 60 | Plant response rating, Crabgrass [4, 25]: 70 | Plant response rating, Foxtail, Giant ([5]; Rate 250 g/ha): 80 | Plant response rating, Kochia ([6]; Rate 62 g/ha, scale 0 to 100): 10 | Plant response rating, Kochia [6, 24]: 80 | Plant response rating, Kochia [6, 25]: 90 | Plant response rating, Nutsedge ([7]; Rate 62 g/ha, scale 0 to 100): 0 | Plant response rating, Nutsedge [7, 24]: 0 | Plant response rating, Nutsedge [7, 25]: 0 | Plant response rating, Bermudagrass ([8]; Rate 62 g/ha, scale 0 to 100): 40 | Plant response rating, Bermudagrass [8, 26]: 60 | Plant response rating, Bermudagrass [8, 24]: 60 | Plant response rating, Bermudagrass [8, 25]: 100 | Plant response rating, Surinam grass ([9]; Rate 62 g/ha, scale 0 to 100): 20 | Plant response rating, Surinam grass [9, 26]: 40 | Plant response rating, Surinam grass [9, 24]: 60 | Plant response rating, Surinam grass [9, 25]: 60 | Plant response rating, Soybean ([10]; Rate 62 g/ha, scale 0 to 100): 90 | Plant response rating, Soybean [10, 24]: 100 | Plant response rating, Soybean [10, 25]: 100 | Plant response rating, Cupgrass, Woolly ([11]; Rate 62 g/ha, scale 0 to 100): 30 | Plant response rating, Cupgrass, Woolly [11, 24]: 50 | Plant response rating, Cupgrass, Woolly [11, 25]: 70 | Plant response rating, Cocklebur ([12]; Rate 62 g/ha, scale 0 to 100): 70 | Plant response rating, Cocklebur [12, 24]: 70 | Plant response rating, Cocklebur [12, 25]: 100 | Plant response rating, Pigweed ([13]; Rate 62 g/ha, scale 0 to 100): 70 | Plant response rating, Pigweed [13, 24]: 70 | Plant response rating, Pigweed [13, 25]: 100 | Plant response rating, Wild Oat [14, 26]: 0 | Plant response rating, Wild Oat [14, 27]: 0 | Plant response rating, Barnyardgrass [15, 26]: 0 | Plant response rating, Barnyardgrass [15, 27]: 80 | Plant response rating, Corn [16, 26]: 0 | Plant response rating, Corn [16, 27]: 0 | Plant response rating, Wheat [17, 26]: 0 | Plant response rating, Wheat [17, 27]: 0 | Plant response rating, Velvetleaf [18, 26]: 50 | Plant response rating, Velvetleaf [18, 27]: 70 | Plant response rating, Foxtail, Giant [19, 26]: 30 | Plant response rating, Foxtail, Giant [19, 27]: 50 | Plant response rating, Surinam grass [20, 26]: 0 | Plant response rating, Surinam grass [20, 27]: 0 | Plant response rating, Morningglory [21, 26]: 0 | Plant response rating, Morningglory [21, 27]: 70 | Plant response rating, Lambsquarters [22, 26]: 90 | Plant response rating, Lambsquarters [22, 27]: 100 | Plant response rating, Pigweed [23, 26]: 80 | Plant response rating, Pigweed [23, 27]: 100
